Experiment: Paddle dissolution test (USP 711) of the aerosol dose collected on a filter in the apparatus of the invention
Assay type: physicochemical
Settings: drug loading 50-500 μg, surface coverage 3.89-38.92 μg/cm^2; 1, 2, 5 and 10 actuations; DPI and MDI
Description: In accordance with one embodiment of the invention, collected particles are subjected to a dissolution test. Dissolution tests are widely practised in the art and the selection of suitable dissolution media and methods for particles collected from a given drug formulation are a routine matter for those skilled in the art. One such test, which may be expediently used, is the paddle dissolution test (US Pharmocopeial Convention 2011, 711, Dissolution, Paddle Apparatus). Illustrative commonly used dissolution media include e.g. phosphate buffered saline (PBS) solution either with or without the addition of a surfactant (e.g. Tween 20, Tween 80, SDS etc.). The solution can be chemically analysed, for example by HPLC, to determine the mass collected.
Collection of the samples of FIGS. 7A and 7B was accomplished in an apparatus according to FIG. 4 in which a glass microfibre filter (Pall Corporation, A/E filter) having a nominal filter pore size of 1 μm was used. The reference scale on each image of FIGS. 7A and 7B corresponds to 10 μm.
In each run, after the relevant number of doses had been delivered into the device, the filter was removed and the collected mass dissolved in phosphate buffered saline (PBS) solution using the paddle dissolution method (USP 711, 2011) and chemically analysed by HPLC to determine the mass collected. […]

dependence of dissolution release profiles on drug loading: independent of drug loading
Structure (SMILES): CCC(=O)O[C@]1(C(=O)SCF)[C@H](C)C[C@H]2[C@@H]3C[C@H](F)C4=CC(=O)C=C[C@]4(C)[C@@]3(F)[C@@H](O)C[C@@]21C [fluticasone propionate]

From patent US11181447B2, “Apparatus and method for determination of the fine particle dose of a powder inhalation formulation” (NANOPHARM LIMITED, priority 2016, dated 2021)
